Key:
[1] = target: Glycogen synthase kinase-3 beta (Homo sapiens, UniProt P49841)
Description: Inhibition of GSK3-beta assessed as NADH level after 10 mins by pyruvate kinase/lactate dehydrogenase coupled spectrophotometric assay

[2] = target: Tyrosine-protein kinase JAK2 (Homo sapiens, UniProt O60674); assay: Inhibition of JAK2
[3] = target: T1, Interleukin-1 receptor-associated kinase 4 (Homo sapiens, UniProt Q9NWZ3); assay: Inhibition of IRAK4
T1 sequence (Q9NWZ3 whole entry): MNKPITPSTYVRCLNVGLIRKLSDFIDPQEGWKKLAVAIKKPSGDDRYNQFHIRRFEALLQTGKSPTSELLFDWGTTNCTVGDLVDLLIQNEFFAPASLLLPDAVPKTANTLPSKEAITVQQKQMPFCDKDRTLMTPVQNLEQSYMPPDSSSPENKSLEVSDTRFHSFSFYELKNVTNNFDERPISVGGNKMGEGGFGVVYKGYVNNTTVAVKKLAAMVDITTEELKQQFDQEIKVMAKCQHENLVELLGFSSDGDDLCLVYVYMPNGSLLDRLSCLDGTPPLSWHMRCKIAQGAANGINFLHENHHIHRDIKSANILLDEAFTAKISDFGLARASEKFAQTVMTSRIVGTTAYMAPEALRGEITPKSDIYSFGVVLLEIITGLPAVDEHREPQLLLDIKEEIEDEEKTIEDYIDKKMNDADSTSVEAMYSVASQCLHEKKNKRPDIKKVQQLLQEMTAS

[4] = target: Proto-oncogene tyrosine-protein kinase Src (Homo sapiens, UniProt P12931); assay: Inhibition of SRC
[5] = Inhibition of PKA
[6] = target: Cyclin-dependent kinase 2 (Homo sapiens, UniProt P24941)
[7] = target: T2, Receptor-type tyrosine-protein kinase FLT3 (Homo sapiens, UniProt P36888); assay: Inhibition of FLT3
T2 sequence (P36888 whole entry): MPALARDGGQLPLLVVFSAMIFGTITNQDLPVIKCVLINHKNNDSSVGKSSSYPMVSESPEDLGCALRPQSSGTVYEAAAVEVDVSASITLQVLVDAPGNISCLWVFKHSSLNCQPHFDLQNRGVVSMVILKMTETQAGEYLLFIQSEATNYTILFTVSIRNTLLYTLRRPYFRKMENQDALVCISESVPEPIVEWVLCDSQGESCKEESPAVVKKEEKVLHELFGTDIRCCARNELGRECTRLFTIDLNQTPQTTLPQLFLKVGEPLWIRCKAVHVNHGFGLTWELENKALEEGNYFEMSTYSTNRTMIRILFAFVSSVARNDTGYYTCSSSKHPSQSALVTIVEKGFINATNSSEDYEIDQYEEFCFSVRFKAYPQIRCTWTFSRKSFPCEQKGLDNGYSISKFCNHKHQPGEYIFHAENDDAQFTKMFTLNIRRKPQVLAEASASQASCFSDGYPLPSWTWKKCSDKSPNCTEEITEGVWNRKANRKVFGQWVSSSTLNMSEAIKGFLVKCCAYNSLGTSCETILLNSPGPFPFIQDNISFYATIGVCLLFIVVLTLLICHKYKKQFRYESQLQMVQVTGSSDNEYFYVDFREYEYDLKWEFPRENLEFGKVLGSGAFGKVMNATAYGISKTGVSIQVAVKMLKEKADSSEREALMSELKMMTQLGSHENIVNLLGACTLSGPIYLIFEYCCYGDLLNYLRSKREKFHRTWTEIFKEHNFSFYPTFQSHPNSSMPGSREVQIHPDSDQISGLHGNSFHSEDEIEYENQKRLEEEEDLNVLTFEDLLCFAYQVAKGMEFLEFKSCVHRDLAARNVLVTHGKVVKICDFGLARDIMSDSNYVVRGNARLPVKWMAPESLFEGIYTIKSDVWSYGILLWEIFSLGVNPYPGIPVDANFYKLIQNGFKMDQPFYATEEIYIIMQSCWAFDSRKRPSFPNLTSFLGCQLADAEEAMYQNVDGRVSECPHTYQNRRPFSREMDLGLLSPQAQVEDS

[8] = target: Mitogen-activated protein kinase 10 (Homo sapiens, UniProt P53779); assay: Inhibition of JNK3
Sequence of Mitogen-activated protein kinase 10 (P53779 whole entry): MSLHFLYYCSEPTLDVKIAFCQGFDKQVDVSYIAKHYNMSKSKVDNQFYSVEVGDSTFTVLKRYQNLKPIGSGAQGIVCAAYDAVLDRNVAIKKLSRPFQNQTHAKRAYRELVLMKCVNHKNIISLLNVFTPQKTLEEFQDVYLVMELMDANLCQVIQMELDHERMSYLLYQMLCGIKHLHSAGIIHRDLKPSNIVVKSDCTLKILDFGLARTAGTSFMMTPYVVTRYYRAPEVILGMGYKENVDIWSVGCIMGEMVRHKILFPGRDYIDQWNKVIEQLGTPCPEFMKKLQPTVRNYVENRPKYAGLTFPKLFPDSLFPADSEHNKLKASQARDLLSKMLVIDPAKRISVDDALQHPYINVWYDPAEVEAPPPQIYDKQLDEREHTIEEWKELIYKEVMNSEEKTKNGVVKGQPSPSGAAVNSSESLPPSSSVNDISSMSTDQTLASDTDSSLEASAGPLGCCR

[9] = target: Vascular endothelial growth factor receptor 2 (Homo sapiens, UniProt P35968); assay: Inhibition of KDR
Sequence of Vascular endothelial growth factor receptor 2 (P35968 whole entry): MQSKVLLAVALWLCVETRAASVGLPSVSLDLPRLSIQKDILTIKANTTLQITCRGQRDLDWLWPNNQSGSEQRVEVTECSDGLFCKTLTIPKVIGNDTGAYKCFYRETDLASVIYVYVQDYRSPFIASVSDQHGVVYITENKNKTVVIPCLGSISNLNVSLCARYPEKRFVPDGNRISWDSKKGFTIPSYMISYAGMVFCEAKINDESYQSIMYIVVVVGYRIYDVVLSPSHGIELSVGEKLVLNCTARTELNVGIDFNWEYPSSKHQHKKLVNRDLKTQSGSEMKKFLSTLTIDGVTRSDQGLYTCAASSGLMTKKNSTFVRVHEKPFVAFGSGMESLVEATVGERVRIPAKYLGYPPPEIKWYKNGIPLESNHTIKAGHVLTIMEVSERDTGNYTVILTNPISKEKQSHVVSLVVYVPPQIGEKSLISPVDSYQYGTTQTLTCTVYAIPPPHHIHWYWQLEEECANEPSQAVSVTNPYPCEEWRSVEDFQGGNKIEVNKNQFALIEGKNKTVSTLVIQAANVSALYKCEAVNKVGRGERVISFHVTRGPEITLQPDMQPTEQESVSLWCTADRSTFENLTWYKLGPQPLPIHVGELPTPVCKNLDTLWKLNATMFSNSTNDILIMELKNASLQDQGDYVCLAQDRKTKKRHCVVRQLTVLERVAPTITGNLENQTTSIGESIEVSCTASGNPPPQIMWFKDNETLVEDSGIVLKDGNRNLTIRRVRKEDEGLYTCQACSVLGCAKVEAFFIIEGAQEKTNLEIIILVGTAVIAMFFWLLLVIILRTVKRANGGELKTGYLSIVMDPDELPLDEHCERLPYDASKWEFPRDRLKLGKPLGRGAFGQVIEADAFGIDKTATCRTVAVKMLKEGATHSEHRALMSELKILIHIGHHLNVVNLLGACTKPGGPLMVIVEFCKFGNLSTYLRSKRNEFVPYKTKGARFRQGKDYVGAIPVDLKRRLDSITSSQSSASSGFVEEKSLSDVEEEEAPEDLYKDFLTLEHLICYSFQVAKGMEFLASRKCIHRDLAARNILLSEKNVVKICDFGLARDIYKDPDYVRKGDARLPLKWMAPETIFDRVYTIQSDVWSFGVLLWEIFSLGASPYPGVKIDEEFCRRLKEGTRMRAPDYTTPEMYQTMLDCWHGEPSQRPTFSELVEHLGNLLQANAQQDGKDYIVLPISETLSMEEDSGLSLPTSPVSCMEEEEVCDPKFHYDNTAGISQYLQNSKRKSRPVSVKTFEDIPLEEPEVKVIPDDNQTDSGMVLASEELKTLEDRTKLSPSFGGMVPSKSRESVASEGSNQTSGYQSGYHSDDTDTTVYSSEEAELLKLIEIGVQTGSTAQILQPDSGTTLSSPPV

[10] = target: Hepatocyte growth factor receptor (Homo sapiens, UniProt P08581)
[11] = target: Serine/threonine-protein kinase PLK1 (Homo sapiens, UniProt P53350); assay: Inhibition of PLK1
Sequence of Serine/threonine-protein kinase PLK1 (P53350 whole entry): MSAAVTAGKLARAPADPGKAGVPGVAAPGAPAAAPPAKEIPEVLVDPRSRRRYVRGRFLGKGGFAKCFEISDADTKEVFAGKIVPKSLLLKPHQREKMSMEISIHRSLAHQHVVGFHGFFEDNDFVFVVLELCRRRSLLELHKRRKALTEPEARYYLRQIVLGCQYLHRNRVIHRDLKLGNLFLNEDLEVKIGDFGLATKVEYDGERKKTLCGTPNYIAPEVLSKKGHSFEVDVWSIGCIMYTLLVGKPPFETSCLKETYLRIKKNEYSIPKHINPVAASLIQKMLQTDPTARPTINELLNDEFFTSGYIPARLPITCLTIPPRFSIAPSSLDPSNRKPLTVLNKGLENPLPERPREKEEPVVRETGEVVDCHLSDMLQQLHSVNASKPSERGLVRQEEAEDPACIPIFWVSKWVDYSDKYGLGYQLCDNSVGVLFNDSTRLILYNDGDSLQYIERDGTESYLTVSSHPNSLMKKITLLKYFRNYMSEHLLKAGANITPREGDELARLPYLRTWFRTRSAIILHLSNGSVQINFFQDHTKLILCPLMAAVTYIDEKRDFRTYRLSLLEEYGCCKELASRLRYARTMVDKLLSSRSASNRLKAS

[12] = target: Rho-associated protein kinase 1 (Homo sapiens, UniProt Q13464); assay: Inhibition of ROCK1
Sequence of Rho-associated protein kinase 1 (Q13464 whole entry, canonical isoform): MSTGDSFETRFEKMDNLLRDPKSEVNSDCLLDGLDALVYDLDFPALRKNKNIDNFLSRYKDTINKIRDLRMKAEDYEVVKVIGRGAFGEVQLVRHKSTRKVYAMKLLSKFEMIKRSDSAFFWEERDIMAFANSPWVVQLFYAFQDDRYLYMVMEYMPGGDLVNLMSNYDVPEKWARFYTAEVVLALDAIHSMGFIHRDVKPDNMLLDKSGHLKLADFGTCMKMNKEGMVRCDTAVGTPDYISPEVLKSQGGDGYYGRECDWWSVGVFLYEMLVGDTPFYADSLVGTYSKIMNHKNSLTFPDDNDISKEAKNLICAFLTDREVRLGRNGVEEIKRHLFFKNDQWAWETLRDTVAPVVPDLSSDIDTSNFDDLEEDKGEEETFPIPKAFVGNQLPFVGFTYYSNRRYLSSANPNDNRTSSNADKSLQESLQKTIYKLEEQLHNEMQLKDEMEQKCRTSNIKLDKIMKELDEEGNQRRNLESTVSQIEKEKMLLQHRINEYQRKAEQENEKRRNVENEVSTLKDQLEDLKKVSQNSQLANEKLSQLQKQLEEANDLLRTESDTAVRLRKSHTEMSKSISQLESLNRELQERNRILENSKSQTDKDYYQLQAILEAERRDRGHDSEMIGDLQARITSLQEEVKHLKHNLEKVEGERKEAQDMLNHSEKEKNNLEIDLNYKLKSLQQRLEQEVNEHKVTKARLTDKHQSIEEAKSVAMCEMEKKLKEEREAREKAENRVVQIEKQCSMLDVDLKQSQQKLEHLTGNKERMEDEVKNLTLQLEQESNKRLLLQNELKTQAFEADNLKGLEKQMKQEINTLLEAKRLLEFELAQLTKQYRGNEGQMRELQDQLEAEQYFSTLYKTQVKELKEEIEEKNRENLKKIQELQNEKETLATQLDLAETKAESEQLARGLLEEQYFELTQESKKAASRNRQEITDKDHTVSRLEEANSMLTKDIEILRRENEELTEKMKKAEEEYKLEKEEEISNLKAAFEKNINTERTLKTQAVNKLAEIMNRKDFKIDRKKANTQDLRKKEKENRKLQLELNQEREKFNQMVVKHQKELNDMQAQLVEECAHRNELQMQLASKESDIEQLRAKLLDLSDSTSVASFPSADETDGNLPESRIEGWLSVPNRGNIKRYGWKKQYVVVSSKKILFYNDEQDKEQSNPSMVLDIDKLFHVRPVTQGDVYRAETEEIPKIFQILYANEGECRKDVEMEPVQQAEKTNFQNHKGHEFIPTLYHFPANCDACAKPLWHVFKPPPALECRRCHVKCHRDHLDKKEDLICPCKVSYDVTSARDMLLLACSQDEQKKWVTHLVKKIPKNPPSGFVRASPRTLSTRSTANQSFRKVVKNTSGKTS

[13] = target: Phosphatidylinositol 4,5-bisphosphate 3-kinase catalytic subunit gamma isoform (Homo sapiens, UniProt P48736); assay: Inhibition of PI3Kgamma
[14] = target: Tyrosine-protein kinase SYK (Homo sapiens, UniProt P43405)

Sequence of Tyrosine-protein kinase JAK2 (O60674 whole entry): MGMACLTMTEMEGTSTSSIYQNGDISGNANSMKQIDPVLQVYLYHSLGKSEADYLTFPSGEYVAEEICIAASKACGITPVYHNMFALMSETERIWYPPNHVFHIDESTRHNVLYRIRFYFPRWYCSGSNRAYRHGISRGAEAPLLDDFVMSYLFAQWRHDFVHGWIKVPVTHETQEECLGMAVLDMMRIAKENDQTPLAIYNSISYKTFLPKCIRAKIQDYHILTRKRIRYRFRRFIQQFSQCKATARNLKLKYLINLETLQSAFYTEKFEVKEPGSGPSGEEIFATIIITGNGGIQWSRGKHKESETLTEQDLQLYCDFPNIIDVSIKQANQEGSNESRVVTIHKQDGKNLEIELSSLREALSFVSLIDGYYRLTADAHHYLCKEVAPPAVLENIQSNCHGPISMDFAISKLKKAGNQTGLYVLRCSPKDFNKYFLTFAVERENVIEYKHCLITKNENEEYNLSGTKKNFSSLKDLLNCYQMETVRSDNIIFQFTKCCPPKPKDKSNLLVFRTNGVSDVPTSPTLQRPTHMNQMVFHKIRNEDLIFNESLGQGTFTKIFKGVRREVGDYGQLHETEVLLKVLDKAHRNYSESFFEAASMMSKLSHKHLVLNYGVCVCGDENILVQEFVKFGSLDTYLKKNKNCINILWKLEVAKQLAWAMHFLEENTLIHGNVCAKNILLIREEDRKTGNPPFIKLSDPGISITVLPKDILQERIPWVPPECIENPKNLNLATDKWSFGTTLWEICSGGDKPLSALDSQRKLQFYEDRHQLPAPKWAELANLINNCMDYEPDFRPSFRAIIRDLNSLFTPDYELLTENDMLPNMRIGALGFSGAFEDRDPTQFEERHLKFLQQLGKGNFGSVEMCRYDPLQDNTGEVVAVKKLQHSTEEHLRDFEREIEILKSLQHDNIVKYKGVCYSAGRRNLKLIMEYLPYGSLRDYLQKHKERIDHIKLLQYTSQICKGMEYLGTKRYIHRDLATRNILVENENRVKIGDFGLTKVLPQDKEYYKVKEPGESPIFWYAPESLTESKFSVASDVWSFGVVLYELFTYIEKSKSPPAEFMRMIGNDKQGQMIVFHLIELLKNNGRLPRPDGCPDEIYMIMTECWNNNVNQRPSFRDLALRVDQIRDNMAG

Row | Structure (SMILES) | Ki [1] [µM] | further results
1 | COc1ccncc1C1=NNC(=O)/C1=N\Nc1ccncc1 | 0.016 | 
2 | CC1=NNC(=O)/C1=N\Nc1ccccc1Cl | 0.46 | 
3 | COc1cccc(C2=NNC(=O)/C2=N\Nc2ccc(Cl)cc2)c1 | 0.009 | 
4 | COc1ccc(C2=NNC(=O)/C2=N\Nc2cccc(Cl)c2)cc1 | 0.0019 | 
5 | COc1ccc(C2=NNC(=O)/C2=N\Nc2cccnc2)cc1 | 0.002 | Ki [2]: > 4 µM; Ki [3]: 1.5 µM; Ki [4]: > 4 µM; Ki [5]: > 4 µM; Ki [6]: 0.062 µM; Ki [7]: 0.13 µM; Ki [8]: > 4 µM; Ki [9]: 3.4 µM; Ki [10]: > 4 µM; Ki [11]: > 4 µM; Ki [12]: > 4 µM
6 | COc1cccc(N/N=C2\C(=O)NN=C2c2cnccc2OC)c1 | 0.0037 | 
7 | COc1ccc(N/N=C2\C(=O)NN=C2c2cnccc2OC)cc1 | 0.002 | 
8 | COc1cccc(C2=NNC(=O)/C2=N\Nc2ccccc2)c1 | 0.039 | 
9 | COc1cccc(C2=NNC(=O)/C2=N\Nc2cccc(Cl)c2)c1 | 0.008 | 
10 | CC(C)C1=NNC(=O)/C1=N\Nc1ccccc1Cl | > 3.7 | 
11 | O=C1NN=C(c2ccccn2)/C1=N/Nc1ccccc1Cl | 0.65 | 
12 | O=C1NN=C(c2cccnc2)/C1=N/Nc1ccccc1Cl | 0.2 | 
13 | O=C1NN=C(c2ccncc2)/C1=N/Nc1ccccc1Cl | 0.25 | 
14 | O=C1NN=C(c2ccccc2)/C1=N/Nc1ccccc1Cl | 0.72 | 
15 | COc1cccc(C2=NNC(=O)/C2=N\Nc2ccc(N(C)C)cc2)c1 | 0.009 | 
16 | COc1cccc(C2=NNC(=O)/C2=N\Nc2ccc(N3CCOCC3)cc2)c1 | 0.059 | 
17 | COc1ccc(C2=NNC(=O)/C2=N\Nc2ccc(Cl)cc2)cc1 | 0.002 | 
18 | O=C1NN=C/C1=N/Nc1ccccc1Cl | 1.49 | 
19 | COc1ccc(C2=NNC(=O)/C2=N\Nc2cccc(OC)c2)cc1 | 0.0008 | Ki [2]: > 1.6 µM; Ki [4]: > 4 µM; Ki [5]: > 4 µM; Ki [6]: 0.095 µM; Ki [7]: 0.066 µM; Ki [8]: > 4 µM; Ki [9]: 1.8 µM; Ki [10]: > 4 µM; Ki [11]: > 4 µM; Ki [12]: > 4 µM
20 | COc1cccc(C2=NNC(=O)/C2=N\Nc2ccccc2Cl)c1 | 0.85 | 
21 | COc1ccc(C2=NNC(=O)/C2=N\Nc2ccc(C#N)cc2)cc1 | < 0.002 | 

Row | Structure (SMILES) | Ki [1] [µM] | further results
22 | COc1ccc(C2=NNC(=O)/C2=N\Nc2ccncc2)cc1 | 0.014 | 
23 | COc1ccc(C2=NNC(=O)/C2=N\Nc2ccc(N(C)C)cc2)cc1 | 0.11 | 
24 | CCN(CC)c1ccc(N/N=C2\C(=O)NN=C2c2ccc(OC)cc2)cc1 | 0.016 | 
25 | COc1ccncc1C1=NNC(=O)/C1=N\Nc1ccc(C#N)cc1 | 0.0083 | 
26 | COc1ccncc1C1=NNC(=O)/C1=N\Nc1cccnc1 | 0.023 | 
27 | COc1ccccc1N/N=C1\C(=O)NN=C1c1ccccc1 | > 4 | 
28 | COc1cccc(N/N=C2\C(=O)NN=C2c2ccccc2)c1 | 0.035 | 
29 | COc1ccc(C2=NNC(=O)/C2=N\Nc2ccccc2Cl)cc1OC | 0.044 | 
30 | O=C1NN=C(c2ccccc2)/C1=N/Nc1ccccc1 | 0.099 | 
31 | O=C1NN=C(c2ccccc2)/C1=N/Nc1cccc(Cl)c1 | 0.12 | 
32 | O=C1NN=C(c2ccccc2)/C1=N/Nc1ccc(Cl)cc1 | 0.023 | 
33 | COc1ccncc1C1=NNC(=O)/C1=N\Nc1ccc(C(=O)O)cc1 | 0.0077 | 
34 | COc1ccncc1C1=NNC(=O)/C1=N\Nc1ccc(N2CCOCC2)cc1 | 0.05 | 
35 | COc1ccc(N/N=C2\C(=O)NN=C2c2ccccn2)cc1 | 0.64 | 
36 | COc1ccc(N/N=C2\C(=O)NN=C2c2cccnc2)cc1 | 0.02 | 
37 | COc1ccc(N/N=C2\C(=O)NN=C2c2ccncc2)cc1 | 0.03 | 
38 | COc1ccc(N/N=C2\C(=O)NN=C2c2cccc(OC)c2)cc1 | 0.018 | 
39 | COc1ccc(N/N=C2\C(=O)NN=C2c2ccc(OC)cc2)cc1 | 0.002 | 
40 | COc1cccc(N/N=C2\C(=O)NN=C2c2cccc(OC)c2)c1 | 0.005 | 
41 | COc1cccc(C2=NNC(=O)/C2=N\Nc2ccc(C#N)cc2)c1 | 0.004 | 
42 | COc1cccc(C2=NNC(=O)/C2=N\Nc2ccccn2)c1 | 0.008 | 

Row | Structure (SMILES) | Ki [1] [µM] | further results
43 | COc1cccc(C2=NNC(=O)/C2=N\Nc2cccnc2)c1 | 0.03 | 
44 | COc1ccc(N/N=C2\C(=O)NN=C2c2ccc(OC)c(OC)c2)cc1 | < 0.002 | 
45 | COc1ccc(N/N=C2\C(=O)NN=C2c2cc(OC)c(OC)c(OC)c2)cc1 | 0.009 | 
46 | COc1cccc(C2=NNC(=O)/C2=N\Nc2ccncc2)c1 | 0.023 | 
47 | COc1cccc(C2=NNC(=O)/C2=N\Nc2ccc(C(=O)O)cc2)c1 | 0.0065 | 
48 | COc1ccc(C2=NNC(=O)/C2=N\Nc2ccc(N(C)C)cc2)cc1OC | 0.087 | 
49 | CCN(CC)c1ccc(N/N=C2\C(=O)NN=C2c2ccc(OC)c(OC)c2)cc1 | 0.002 | 
50 | COc1ccc(C2=NNC(=O)/C2=N\Nc2ccc(N3CCOCC3)cc2)cc1OC | 0.003 | 
51 | COc1ccncc1C1=NNC(=O)/C1=N\Nc1ccccc1 | 0.0045 | Ki [2]: 3.5 µM; Ki [3]: 1.1 µM; Ki [4]: > 4 µM; Ki [13]: 0.54 µM; Ki [5]: > 4 µM; Ki [7]: 0.29 µM; Ki [14]: 1.8 µM; Ki [8]: 2.5 µM; Ki [9]: 1 µM; Ki [11]: > 4 µM; Ki [12]: > 4 µM
52 | COc1ccc(C2=NNC(=O)/C2=N\Nc2ccc(C#N)cc2)cc1OC | < 0.002 | 
53 | COc1ccc(C2=NNC(=O)/C2=N\Nc2cccnc2)cc1OC | < 0.0035 | 
54 | COc1ccc(C2=NNC(=O)/C2=N\Nc2ccncc2)cc1OC | < 0.0035 | 
55 | COc1ccc(C2=NNC(=O)/C2=N\Nc2cccc(Cl)c2)cc1OC | 0.0004 | 
56 | COc1ccc(C2=NNC(=O)/C2=N/Nc2ccc(Cl)cc2)cc1OC | < 0.002 | 
57 | COc1ccncc1C1=NNC(=O)/C1=N\Nc1ccc(Cl)cc1 | 0.003 | 
58 | COc1cccc(N/N=C2\C(=O)NN=C2c2ccc(OC)c(OC)c2)c1 | 0.0004 | 
59 | COc1ccccc1N/N=C1\C(=O)NN=C1c1cnccc1OC | 0.27 | 
60 | COc1ccc(C2=NNC(=O)/C2=N\Nc2ccc(N3CCOCC3)cc2)cc1 | 0.008 | 
61 | COc1ccc(C2=NNC(=O)/C2=N\Nc2ccccc2)cc1OC | < 0.0035 | 
